“Also recorded” adds a separate entry of the source. Each block holds one compound with its values, some of them ahead of it.
Legend:
[1] = tested on: adipocytes (3T3-L1) and myotubes (C2C12); assay: Fatty acid oxidation screening and dose-response, cell type both or not stated; format: cell-based; details: for concentrations that exert no effect (dose-response curves; sub-therapeutic dose): highest dose that exerted no effect on fatty acid oxidation; for independent activity in stimulating fatty acid oxidation (dose-response): compound alone; for synergy with HMB or leucine in stimulating fatty acid oxidation: compound at its no-effect concentration with HMB 5 μM or leucine 0.5 mM
[2] = target: T1, SIRT1 (Homo sapiens, UniProt Q96EB6); assay: SIRT1 activity, cell-free fluorimetric deacetylation assay; format: biochemical; details: cell-free system
T1 construct: purchased ENZO Life Sciences International, Inc. BML-AK555
T1 sequence (Q96EB6 1-747): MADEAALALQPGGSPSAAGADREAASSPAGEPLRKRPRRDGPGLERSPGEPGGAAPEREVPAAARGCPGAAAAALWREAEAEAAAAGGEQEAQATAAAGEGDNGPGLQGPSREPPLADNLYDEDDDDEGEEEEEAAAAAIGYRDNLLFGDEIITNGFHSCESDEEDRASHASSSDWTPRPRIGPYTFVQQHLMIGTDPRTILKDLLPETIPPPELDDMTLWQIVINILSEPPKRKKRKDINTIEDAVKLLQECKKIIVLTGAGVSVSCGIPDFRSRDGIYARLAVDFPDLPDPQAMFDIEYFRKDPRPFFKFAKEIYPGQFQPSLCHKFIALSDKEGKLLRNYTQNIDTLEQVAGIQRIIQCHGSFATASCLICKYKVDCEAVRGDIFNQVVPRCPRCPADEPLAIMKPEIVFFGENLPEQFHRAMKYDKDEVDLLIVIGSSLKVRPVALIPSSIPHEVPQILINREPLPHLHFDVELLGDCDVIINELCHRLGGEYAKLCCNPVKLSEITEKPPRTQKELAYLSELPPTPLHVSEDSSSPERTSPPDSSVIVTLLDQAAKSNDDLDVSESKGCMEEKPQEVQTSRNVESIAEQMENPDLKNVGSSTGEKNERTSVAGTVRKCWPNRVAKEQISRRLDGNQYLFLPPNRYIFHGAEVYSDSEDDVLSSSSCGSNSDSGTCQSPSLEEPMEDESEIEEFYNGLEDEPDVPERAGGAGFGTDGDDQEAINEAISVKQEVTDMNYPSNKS
Experimental: SIRT1 activity was measured by using the SIRT1 Fluorimetric Drug Discovery Kit (BML-AK555, ENZO Life Sciences International, Inc. PA, USA). In this assay, SIRT1 activity is assessed by the degree of deacetylation of a standardized substrate containing an acetylated lysine side chain. The substrate utilized is a peptide containing amino acids 379-382 of human p53 (Arg-His-Lys-Lys[Ac]), an established target of SIRT1 activity; SIRT1 activity is directly proportional to the degree of deacetylation of Lys-382. Samples were incubated with peptide substrate (25 μM), and NAD^+ (500 μM) in a phosphate-buffered saline solution at 37° C. on a horizontal shaker for 45 minutes. The reaction was stopped with the addition of 2 mM nicotinamide and a developing solution that binds to the deacetylated lysine to form a fluorophore. Following 10 minutes incubation at 37° C., fluorescence was read in a plate-reading fluorometer at an excitation wavelength of 360 nm and an emission wavelength of 450 nm. […] A standard curve was constructed using deacetylated substrate (0-10 μM).

[3] = db/db mice
[4] = Plasma insulin, glucose and HOMAIR in db/db mice; format: in vivo
[5] = Insulin tolerance test in db/db mice; format: in vivo
[6] = tested on: c2c12 myotubes; assay: Glucose utilization (extracellular acidification) in C2C12 myotubes; format: cell-based; details: HMB 5 μM, leucine 0.5 mM, resveratrol 200 nM, other components at their no-effect concentration
Experimental: All compounds were tested for potential to independently or synergistically modulate sirtuin signaling either by direct stimulation or indirect via upstream signaling via AMPK. A key outcome of Sirt1 signaling is stimulation of PGC1-α and subsequent stimulation of mitochondrial biogenesis and fatty acid oxidation. Accordingly, fatty acid oxidation, measured as palmitate-induced oxygen consumption as described below, was utilized as a sensitive first level of screening for aerobic mitochondrial metabolism. A dose-response curve for fatty acid oxidation was established for each compound studied, and a “sub-therapeutic dose” was defined as the highest dose that exerted no effect in this system. […] Following assessment of fatty acid oxidation, Sirt1 activity, AMPK activity, mitochondrial biogenesis and glucose utilization (measured as glucose-induced extracellular acidification in the absence of fatty acids in the media) were assessed for lead combinations and appropriate controls. Glucose Utilization: In the absence of a fatty acid source and oxidative metabolism, glycolysis and subsequent lactate production results in extracellular acidification, which was also measured using a Seahorse Bioscience XF24 analyzer. […] Data for each sample were normalized to the pre-glucose injection baseline for that sample and expressed as % change from that baseline. […]

[7] = in vivo; cited from earlier work
[8] = tested on: Adipocytes (3T3-L1); assay: Fatty acid oxidation (3H-palmitate) in 3T3-L1 adipocytes; format: cell-based; details: high (25 mM) glucose, 4 hours; leucine 0.5 mM, HMB 5 uM, resveratrol 200 nM; vs. control
Experimental: High glucose medium reduced fatty acid oxidation by 46% (p<0.05).
Fatty acid oxidation was measured using ^3H-labeled palmitate oxidation, with the ^3H label trapped as water as a result of the fat oxidation. The ^3H was then measured via scintillation counter.

[9] = tested on: PGC-1α, NRF-1 and UCP3 genes; assay: Expression of mitochondrial regulatory and component genes; format: cell-based
[10] = tested on: myotube mitochondrial biogenesis; assay: Myotube mitochondrial biogenesis (NAO binding), Example 1; format: cell-based; details: assessed fluorometrically via NAO binding
Experimental: (§1) We next investigated the role of intact leucine (0-0.5 mM) vs. its metabolites, α-ketoisocaproic acid (KIC) (0-0.5 mM) and HMB (0-50 μM). […] Both leucine and HMB increased myotube mitochondrial biogenesis (assessed fluorometrically via NAO binding) by ˜50%, (p<0.005, FIG. 3).

[11] = tested on: c2c12 myotubes; assay: Fatty acid oxidation (FAO) in c2c12 myotubes, Example 1; format: cell-based; details: preserved in presence and absence of 20 nM rapamycin
Experimental: We have shown that catabolic systems are also stimulated to fuel this process, resulting in increased mitochondrial biogenesis and fatty acid oxidation (FAO). To address the mechanism of this effect, we first determined its mTOR-dependence by assessing leucine stimulation of FAO in the presence and absence of 20 nM rapamycin; although rapamycin inhibited FAO in c2c12 myotubes, the degree of leucine stimulation was preserved (˜50%, p<0.03; FIG. 1).
as §1

[12] = target: T2, Sirt3 (Mus musculus, UniProt Q8R104); assay: Sirt3 activity in mitochondrial protein of treated 3T3-L1 adipocytes; format: cell-based; details: 4 hours, leucine 0.5 mM, HMB 5 uM, resveratrol 200 nM
T2 construct: endogenous in cells; host or cells: 3T3-L1 adipocytes (mitochondrial protein)
T2 sequence (Q8R104 1-334): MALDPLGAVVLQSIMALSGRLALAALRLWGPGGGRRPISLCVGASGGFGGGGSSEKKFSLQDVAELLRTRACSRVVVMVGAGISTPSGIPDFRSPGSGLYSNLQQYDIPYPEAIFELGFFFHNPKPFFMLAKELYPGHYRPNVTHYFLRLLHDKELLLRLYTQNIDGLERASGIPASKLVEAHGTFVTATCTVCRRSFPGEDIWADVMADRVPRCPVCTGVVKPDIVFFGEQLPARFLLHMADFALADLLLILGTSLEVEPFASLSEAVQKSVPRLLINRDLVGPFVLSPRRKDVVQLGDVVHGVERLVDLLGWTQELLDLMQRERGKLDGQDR

[13] = high dose metformin 300 mg/kg bw

Compound: Cn1c(=O)c2[nH]cnc2n(C)c1=O [Theophylline, reference compound]
concentrations that exert no effect (dose-response curves; sub-therapeutic dose) [1]: below 1 μM

Compound: O=c1oc2c(O)c(O)cc3c(=O)oc4c(O)c(O)cc1c4c23 [Ellagic acid]
independent activity in stimulating fatty acid oxidation (dose-response) [1]: little activity, even at high concentrations (50 μM)

Compound: OC[C@@H](O)[C@@H](O[C@H]1O[C@H](CO)[C@@H](O)[C@H](O)[C@H]1O)[C@H](O)[C@@H](O)CO [Maltitol, reference compound]
synergy with HMB or leucine in stimulating fatty acid oxidation [1]: no synergy was noted | concentrations that exert no effect (dose-response curves; sub-therapeutic dose) [1]: ≤ 100 nM

SIRT1 activity [2]: no significant effect
Compound: CC(C)[C@H](N)C(=O)O [valine, reference compound]

Compound: CN(C)C(=N)N=C(N)N [Metformin]
effects on body composition [3, 13]: no significant effects | effect on visceral fat mass ([3]; metformin at any dosage in the absence of HMB): not affected | reduction of plasma insulin ([4]; 2 weeks, high dose metformin 300 mg/kg bw (1.5 g/kg diet)): 27% | plasma insulin ([4]; 2 weeks, high dose metformin 300 mg/kg bw, control 62): 45 uU/mL | effect on plasma glucose [4, 13]: no significant effect | independent effects on any variable studied ([4]; low dose of metformin (150 mg/kg) and very low dose (50 mg/kg)): no significant independent effects | decrease in blood glucose over the 30 minute linear portion of the insulin response curve ([5]; insulin 0.75 U/kg, standard metformin dose, or low / very low metformin blends): ~60 mg/dL | changes in blood glucose in response to the insulin challenge ([5]; low-dose or very low-dose of metformin alone): minimal changes

Compound: O=C(O)/C=C/c1ccc(O)c(O)c1 [Caffeic acid]
concentrations that exert no effect (dose-response curves; sub-therapeutic dose) [1]: ≤ 1000 nM

Compound: O=C(O[C@@H]1Cc2c(O)cc(O)cc2O[C@@H]1c1cc(O)c(O)c(O)c1)c1cc(O)c(O)c(O)c1 [EGCG, epigallocatechin gallate]
increase in glucose utilization in myotubes (extracellular acidification response to glucose) [6]: no independent effect | independent activity in stimulating fatty acid oxidation (dose-response) [1]: minimally active | synergy with HMB or leucine in stimulating fatty acid oxidation [1]: do not detect synergistic effects

Compound: Cn1c(=O)c2c(ncn2C)n(C)c1=O [Caffeine]
plasma concentration observed following caffeine consumption [7]: 1000 to 10000 nM

SIRT1 activity [2]: significantly increased SIRT1 activity
Compound: CC(C)C[C@H](N)C(=O)O [leucine]
increase in fatty acid oxidation, high glucose [8]: 27% | expression of mitochondrial regulatory (PGC-1α and NRF-1) and component (UCP3) genes [9]: stimulated expression | increase in myotube mitochondrial biogenesis [10]: ~50% | leucine stimulation of FAO [11]: ~50% | increase in Sirt3 activity [12]: no significant independent effect; also recorded: no independent effects

SIRT1 activity [2]: significantly increased SIRT1 activity
Compound: CC(C)CC(=O)C(=O)O [KIC, α-ketoisocaproic acid]

Compound: Fucoxanthin
concentrations that exert no effect (dose-response curves; sub-therapeutic dose) [1]: ≤ 100 nM

Compound: OC[C@@H](O)[C@@H](O)[C@H](O)[C@@H](O)CO [Sorbitol, reference compound]
synergy with HMB or leucine in stimulating fatty acid oxidation [1]: no synergy

Compound: O[C@H]1[C@H](O)[C@@H](O)[C@H](O)[C@@H](O)[C@H]1O [Myo-inositol, reference compound]
synergy with HMB or leucine in stimulating fatty acid oxidation [1]: no synergy

Source: US8623924B2, “Compositions and methods for modulating metabolic pathways” (Nusirt Sciences, Inc., priority 2011, dated 2014)
